# Results as given in ChEMBL document CHEMBL5154943, “Crystallography-Guided Optimizations of the Keap1-Nrf2 Inhibitors on the Solvent Exposed Region: From Symmetric to Asymmetric Naphthalenesulfonamides” (J Med Chem, 2022).
# Active and inactive are the calls of the source. No cut-off for these calls is given here.
# What was measured:
# [1] = Aqueous solubility of the compound in PBS at pH 2 after 24 hrs by HPLC-UV analysis; assay type: physicochemical
# [2] = Aqueous solubility of the compound in PBS at pH 7 after 24 hrs by HPLC-UV analysis; assay type: physicochemical
# [3] = Aqueous solubility of the compound in PBS at pH 7.4 after 24 hrs by HPLC-UV analysis; assay type: physicochemical
# [4] = test system: Peritoneal macrophage; assay: Antiinflammatory activity against LPS-induced mouse peritoneal macrophage assessed as suppression of ROS level at 10 uM pretreated with LPS followed by compound addition and measured after 6 hrs by DCFH-DA staining based fluorescence analysis; assay type: functional, cell-based
# [5] = test system: Mus musculus; assay: Antiinflammatory activity against ip dosed LPS-induced ALI C57BL/6J mouse model assessed as reduction in TNF-alpha level in BALF administered 0.5 hr prior to LPS stimulation by ELISA method; assay type: functional, organism-based; settings: dose 5-20 mg/kg, DDE = dose-dependent effect
# [6] = test system: Mus musculus; assay: Antiinflammatory activity against ip dosed LPS-induced ALI C57BL/6J mouse model assessed as reduction in […] level in BALF administered 0.5 hr prior to LPS stimulation by ELISA method; assay type: functional, organism-based; settings: dose 5-20 mg/kg, DDE = dose-dependent effect
# [7] = test system: Mus musculus; assay: Antiinflammatory activity against ip dosed LPS-induced ALI C57BL/6J mouse model assessed as reduction in IL-6 level in BALF administered 0.5 hr prior to LPS stimulation by ELISA method; assay type: functional, organism-based; settings: dose 5-20 mg/kg, DDE = dose-dependent effect
# [8] = test system: Mus musculus; assay: Antiinflammatory activity against ip dosed LPS-induced ALI C57BL/6J mouse model assessed as reduction in TNF-alpha mRNA expression in BALF administered 0.5 hr prior to LPS stimulation by RT-qPCR method; assay type: functional, organism-based; settings: dose 5-20 mg/kg, DDE = dose-dependent effect
# [9] = test system: Mus musculus; assay: Antiinflammatory activity against ip dosed LPS-induced ALI C57BL/6J mouse model assessed as reduction in IL-1beta mRNA expression in BALF administered 0.5 hr prior to LPS stimulation by RT-qPCR method; assay type: functional, organism-based; settings: dose 5-20 mg/kg, DDE = dose-dependent effect
# [10] = test system: Mus musculus; assay: Antiinflammatory activity against ip dosed LPS-induced ALI C57BL/6J mouse model assessed as reduction in IL-6 mRNA expression in BALF administered 0.5 hr prior to LPS stimulation by RT-qPCR method; assay type: functional, organism-based; settings: dose 5-20 mg/kg, DDE = dose-dependent effect
# [11] = test system: Mus musculus; assay: In vivo inhibition of Keap1-Nrf2 interaction in LPS-induced acute lung injury C57BL/6J mouse model assessed as increase in Nrf2 nuclear translocation in lungs by measuring decrease in cytosolic Nrf2 level treated intraperitoneally at 0.5 hrs before LPS stimulation by Western blot analysis; assay type: functional, organism-based; settings: dose 5-20 mg/kg, route ip, DDE = dose-dependent effect
# [12] = test system: Peritoneal macrophage; assay: Antiinflammatory activity against LPS-induced mouse peritoneal macrophage assessed as suppression of NO level at 10 uM pretreated with LPS followed by compound addition and measured after 24 hrs by Griess reagent based assay; assay type: functional, cell-based
# [13] = test system: Peritoneal macrophage; assay: Antiinflammatory activity against LPS-induced mouse peritoneal macrophage assessed as inhibition of TNF alpha level at 10 uM after 4 hrs by ELISA method; assay type: functional, cell-based
# [14] = test system: Mus musculus; assay: In vivo inhibition of Keap1-Nrf2 interaction in LPS-induced acute lung injury C57BL/6J mouse model assessed as increase in Nrf2 nuclear translocation in lungs by measuring increase in nuclear Nrf2 level treated intraperitoneally at 0.5 hrs before LPS stimulation by Western blot analysis; assay type: functional, organism-based; settings: dose 5-20 mg/kg, route ip, DDE = dose-dependent effect
# [15] = target: Keap1/Nrf2 (Homo sapiens, UniProt Q14145); assay: Inhibition of recombinant N-terminal His6-tagged human Keap1-Nrf2 (322 to 609 residues) (unknown origin) protein-protein interaction expressed in Escherichia coli (DE3) incubated for 60 mins by fluorescence anisotropy assay
# [16] = test system: Peritoneal macrophage; assay: Cytotoxicity against mouse peritoneal macrophages assessed as reduction in cell viability measured after 24 hrs by Cell Titer-Blue assay; assay type: functional
# Chain of Keap1/Nrf2 (Q16236 whole entry, the tested form may be a part): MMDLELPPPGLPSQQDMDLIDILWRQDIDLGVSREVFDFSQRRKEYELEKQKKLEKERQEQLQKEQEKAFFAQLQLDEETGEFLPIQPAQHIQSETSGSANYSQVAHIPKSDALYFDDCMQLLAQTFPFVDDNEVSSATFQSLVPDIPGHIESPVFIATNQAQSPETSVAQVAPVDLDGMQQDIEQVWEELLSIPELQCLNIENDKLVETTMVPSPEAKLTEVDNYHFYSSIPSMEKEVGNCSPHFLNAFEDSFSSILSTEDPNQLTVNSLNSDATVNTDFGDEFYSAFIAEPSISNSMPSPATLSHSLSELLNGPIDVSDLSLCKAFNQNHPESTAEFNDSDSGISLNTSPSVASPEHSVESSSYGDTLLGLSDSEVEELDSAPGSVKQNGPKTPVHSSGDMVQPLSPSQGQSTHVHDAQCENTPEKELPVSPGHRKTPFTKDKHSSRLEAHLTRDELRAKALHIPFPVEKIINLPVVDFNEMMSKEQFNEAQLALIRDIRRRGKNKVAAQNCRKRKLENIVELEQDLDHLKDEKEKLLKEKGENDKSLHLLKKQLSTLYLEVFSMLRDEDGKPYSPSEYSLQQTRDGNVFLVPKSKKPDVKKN
# Chain of Keap1/Nrf2 (Q14145 whole entry, the tested form may be a part): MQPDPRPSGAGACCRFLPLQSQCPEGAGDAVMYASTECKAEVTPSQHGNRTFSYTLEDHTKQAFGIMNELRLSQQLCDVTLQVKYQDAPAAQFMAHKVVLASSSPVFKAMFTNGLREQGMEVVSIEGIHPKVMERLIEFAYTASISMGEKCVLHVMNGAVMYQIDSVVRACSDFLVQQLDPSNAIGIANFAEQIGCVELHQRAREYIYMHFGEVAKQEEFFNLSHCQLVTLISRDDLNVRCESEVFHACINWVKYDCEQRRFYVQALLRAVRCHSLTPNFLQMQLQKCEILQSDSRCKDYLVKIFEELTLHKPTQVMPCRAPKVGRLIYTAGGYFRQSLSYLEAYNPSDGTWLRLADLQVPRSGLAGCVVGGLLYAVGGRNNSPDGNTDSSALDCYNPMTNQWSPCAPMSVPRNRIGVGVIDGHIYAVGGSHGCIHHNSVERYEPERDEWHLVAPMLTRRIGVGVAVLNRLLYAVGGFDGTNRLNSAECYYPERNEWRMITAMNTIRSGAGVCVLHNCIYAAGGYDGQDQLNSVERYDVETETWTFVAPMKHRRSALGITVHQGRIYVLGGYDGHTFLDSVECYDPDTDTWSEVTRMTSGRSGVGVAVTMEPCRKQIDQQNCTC
SMILES,solubility at 24 h [1] [mg/mL],solubility at 24 h [2] [mg/mL],solubility at 24 h [3] [mg/mL],Kd [15] [µM],CC50 [16] [µM],further results
CCN1CCN(CCC(=O)Nc2ccc(S(=O)(=O)N(CC(N)=O)c3ccc(N(CC(N)=O)S(=O)(=O)c4ccc(OC)cc4)c4ccccc34)cc2)CC1.O=C(O)CCC(=O)O,1.08,0.13,0.0769,–,–,–
CCN1CCN(CCC(=O)Nc2ccc(S(=O)(=O)N(CC(N)=O)c3ccc(N(CC(N)=O)S(=O)(=O)c4ccc(OC)cc4)c4ccccc34)cc2)CC1,–,–,–,–,–,Activity [4]: Active; Activity [5]: Dde; Activity [6]: Dde; Activity [7]: Dde; Activity [8]: Dde; Activity [9]: Dde; Activity [10]: Dde; Activity [11]: Dde; Activity [12]: Active; Activity [13]: Active; Activity [14]: Dde
COc1ccc(S(=O)(=O)N(CC(N)=O)c2ccc(N(CC(N)=O)S(=O)(=O)c3ccc(NC(C)=O)cc3)c3ccccc23)cc1,–,–,–,1.76,> 50,Activity [4]: Active; Activity [12]: Active; Activity [13]: Active
CCN1CCN(CCC(=O)Nc2ccc(S(=O)(=O)N(CC(N)=O)c3ccc(N(CC(N)=O)S(=O)(=O)c4ccc(OC)cc4)c4ccccc34)cc2)CC1.O=C(O)C(F)(F)F,1.26,0.135,0.105,–,–,–
COc1ccc(S(=O)(=O)N(CC(N)=O)c2ccc(N(CC(N)=O)S(=O)(=O)c3ccc(NC(=O)CN4CCC(C)CC4)cc3)c3ccccc23)cc1,–,–,–,6.11,> 50,–
Br.Br.COc1ccc(S(=O)(=O)N(CC(N)=O)c2ccc(N(CC(N)=O)S(=O)(=O)c3ccc(N)cc3)c3ccccc23)cc1,0.532,0.0586,0.0407,–,–,–
CCN1CCN(CC(=O)Nc2ccc(S(=O)(=O)N(CC(N)=O)c3ccc(N(CC(N)=O)S(=O)(=O)c4ccc(OC)cc4)c4ccccc34)cc2)CC1,–,–,–,0.48,> 100,–
CCN1CCN(CCC(=O)Nc2ccc(S(=O)(=O)N(CC(N)=O)c3ccc(N(CC(N)=O)S(=O)(=O)c4ccc(OC)cc4)c4ccccc34)cc2)CC1.O=C(O)CC(O)(CC(=O)O)C(=O)O,1.03,0.129,0.0725,–,–,–
CCC(=O)Nc1ccc(S(=O)(=O)N(CC(N)=O)c2ccc(N(CC(N)=O)S(=O)(=O)c3ccc(OC)cc3)c3ccccc23)cc1,–,–,–,2.81,> 50,–
COc1ccc(S(=O)(=O)N(CC(N)=O)c2ccc(N(CC(N)=O)S(=O)(=O)c3ccc(NC(=O)CN4CCN(C(C)C)CC4)cc3)c3ccccc23)cc1,–,–,–,1.45,> 100,–
COc1ccc(S(=O)(=O)N(CC(N)=O)c2ccc(N(CC(N)=O)S(=O)(=O)c3ccc(N)cc3)c3ccccc23)cc1,0.0475,0.0554,0.0336,–,–,–
COc1ccc(S(=O)(=O)N(CC(N)=O)c2ccc(N(CC(N)=O)S(=O)(=O)c3ccc(NC(=O)CCCN4CCN(C(C)C)CC4)cc3)c3ccccc23)cc1,–,–,–,1.48,> 100,–
CCN1CCN(CCC(=O)Nc2ccc(S(=O)(=O)N(CC(N)=O)c3ccc(N(CC(N)=O)S(=O)(=O)c4ccc(OC)cc4)c4ccccc34)cc2)CC1.O=C(O)/C=C\C(=O)O,1.05,0.122,0.0805,–,–,–

# The next lines start with results.
solubility at 24 h [1] [mg/mL],solubility at 24 h [2] [mg/mL],solubility at 24 h [3] [mg/mL],Kd [15] [µM],SMILES,CC50 [16] [µM],further results
1.57,0.151,0.0477,–,CCN1CCN(CCC(=O)Nc2ccc(S(=O)(=O)N(CC(N)=O)c3ccc(N(CC(N)=O)S(=O)(=O)c4ccc(OC)cc4)c4ccccc34)cc2)CC1.Cl,–,–
–,–,–,8.94,COc1ccc(S(=O)(=O)N(CC(N)=O)c2ccc(N(CC(N)=O)S(=O)(=O)c3ccc(NC(=O)CN4CCSCC4)cc3)c3ccccc23)cc1,> 100,–
–,–,–,0.71,COc1ccc(S(=O)(=O)N(CC(N)=O)c2ccc(N(CC(N)=O)S(=O)(=O)c3ccc(NC(=O)CCN4CCN(C(C)C)CC4)cc3)c3ccccc23)cc1,> 100,–
–,–,–,2.92,COc1ccc(S(=O)(=O)N(CC(N)=O)c2ccc(N(CC(N)=O)S(=O)(=O)c3ccc(NC(=O)CCCN4CCSCC4)cc3)c3ccccc23)cc1,> 100,–
0.925,0.12,0.0779,–,CC(=O)O.CCN1CCN(CCC(=O)Nc2ccc(S(=O)(=O)N(CC(N)=O)c3ccc(N(CC(N)=O)S(=O)(=O)c4ccc(OC)cc4)c4ccccc34)cc2)CC1,–,–
–,–,–,> 10,CCCCC(=O)Nc1ccc(S(=O)(=O)N(CC(N)=O)c2ccc(N(CC(N)=O)S(=O)(=O)c3ccc(OC)cc3)c3ccccc23)cc1,> 100,–
–,–,–,6.64,COc1ccc(S(=O)(=O)N(CC(N)=O)c2ccc(N(CC(N)=O)S(=O)(=O)c3ccc(NC(=O)CN4CCCCC4)cc3)c3ccccc23)cc1,> 100,–
–,–,–,1.42,COc1ccc(S(=O)(=O)N(CC(N)=O)c2ccc(N(CC(N)=O)S(=O)(=O)c3ccc(NC(=O)CCN4CCCCC4)cc3)c3ccccc23)cc1,> 100,–
–,–,–,> 10,CCCC(=O)Nc1ccc(S(=O)(=O)N(CC(N)=O)c2ccc(N(CC(N)=O)S(=O)(=O)c3ccc(OC)cc3)c3ccccc23)cc1,> 100,–
–,–,–,0.58,CCN1CCN(CCCC(=O)Nc2ccc(S(=O)(=O)N(CC(N)=O)c3ccc(N(CC(N)=O)S(=O)(=O)c4ccc(OC)cc4)c4ccccc34)cc2)CC1,> 100,–
–,–,–,1.08,COc1ccc(S(=O)(=O)N(CC(N)=O)c2ccc(N(CC(N)=O)S(=O)(=O)c3ccc(NC(=O)CCCN4CCOCC4)cc3)c3ccccc23)cc1,> 100,–
1.46,0.17,0.13,–,Br.CCN1CCN(CCC(=O)Nc2ccc(S(=O)(=O)N(CC(N)=O)c3ccc(N(CC(N)=O)S(=O)(=O)c4ccc(OC)cc4)c4ccccc34)cc2)CC1,–,–
–,–,–,2.08,COc1ccc(S(=O)(=O)N(CC(N)=O)c2ccc(N(CC(N)=O)S(=O)(=O)c3ccc(NC(=O)CCN4CCC(C)CC4)cc3)c3ccccc23)cc1,> 100,–
–,–,–,1.35,COc1ccc(S(=O)(=O)N(CC(N)=O)c2ccc(N(CC(N)=O)S(=O)(=O)c3ccc(NC(=O)CN4CCOCC4)cc3)c3ccccc23)cc1,> 100,–
–,–,–,1.03,COc1ccc(S(=O)(=O)N(CC(N)=O)c2ccc(N(CC(N)=O)S(=O)(=O)c3ccc(NC(=O)CCN4CCOCC4)cc3)c3ccccc23)cc1,> 100,Activity [4]: Active; Activity [12]: Active; Activity [13]: Active
–,–,–,2.91,COc1ccc(S(=O)(=O)N(CC(N)=O)c2ccc(N(CC(N)=O)S(=O)(=O)c3ccc(NC(=O)CCN4CCSCC4)cc3)c3ccccc23)cc1,> 50,–
